Measured values reported in article PMC11864979, “First-in-class ultralong-target-residence-time p38α inhibitors as a mitosis-targeted therapy for colorectal cancer” (Nature Cancer, 2025).
Values joined by “and” are separate entries in the source; they are usually repeats but may differ in a detail not shown here. Identical values can stand only once.

Tests used:
p38α = p38α (Homo sapiens, UniProt Q16539); assay: target residence time (TRT) fluorescence polarization jump-dilution assay; type: binding
p38α, sequence (Q16539 whole entry): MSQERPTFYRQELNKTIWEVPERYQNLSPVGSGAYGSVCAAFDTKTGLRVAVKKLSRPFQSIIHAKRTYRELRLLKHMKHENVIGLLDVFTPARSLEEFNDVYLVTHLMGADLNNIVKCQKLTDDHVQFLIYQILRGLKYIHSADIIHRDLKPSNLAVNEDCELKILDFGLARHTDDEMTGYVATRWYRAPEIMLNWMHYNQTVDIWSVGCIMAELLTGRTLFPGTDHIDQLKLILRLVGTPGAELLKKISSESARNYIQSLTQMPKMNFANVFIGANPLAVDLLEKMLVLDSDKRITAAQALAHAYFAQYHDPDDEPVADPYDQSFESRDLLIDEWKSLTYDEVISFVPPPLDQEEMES
Protocol: TRTs were determined using a fluorescence polarization assay kit (Transcreener ADP, BellBrook Labs)[29]. […] The formed complex was ‘jump-diluted’ 1:100 (0.5 µl in 49.5 µl) in a 96-half-area-well plate with ATF2 (82 μM), ATP (40 μM) and ADP as the kinase assay detection reagents. The plate was measured every 3 min for 4 h. Fluorescence polarization was detected using the plate reader VictorNivo (PerkinElmer). The data were analyzed using the integrated rate equation in GraphPad Prism version 7.03 software. The residence time was calculated from the reciprocal value of koff.

PDO10 = assay: cell viability in patient-derived CRC organoids PDO10; type: cell-based, human
Protocol: (§1) For in vitro treatment studies, organoids were mechanically dissociated and digested using TrypLE supplemented with 100 µg ml^−1 DNaseI and 10.5 µM Y-27632 dihydrochloride (Invitrogen) at 37 °C. A total of 1,000–2,000 single cells were plated per well in white 96-well plates (Greiner) in culture medium containing 10% GFR Matrigel or Cultrex BME. The treatment with doxycycline (5 µg ml^−1), pharmacological inhibitors or corresponding volumes of DMSO was started 24 h after plating. Doxycycline was obtained from Sigma-Aldrich. […] Cell viability was measured by means of CellTiter-Glo 3D or CellTiter-Glo 2.0 reagent (Promega) according to the manufacturers’ instructions and the Infinite M Plex reader (Tecan, i-control version 3.9.1 software). Results were normalized to vehicle (DMSO) or to shNC. For cell-doubling assays, the cell number was quantified at the corresponding time points using Guava EasyCyte flow cytometer (Luminex, CytoSoft v5.2 software).

HCT 116 = assay: cell viability in human CRC cell line HCT 116; type: cell-based; conditions: for HCT 116 Cell viability (%): 4 d
Protocol: To generate KAP^2D cells, KAP organoids were isolated from Matrigel, fragmented by mechanical dissociation and plated without any extracellular matrix on common cell culture dishes. Phoenix-Eco packaging cells (CRL-3214), HCT-15 (CCL-225), HCT 116 (CCL-247), COLO 205 (CCL-222), LS 174T (CL-188), RKO (CRL-2577) and HT-29 (HTB-38) were obtained from the American Type Culture Collection. The cells were cultured at 37 °C and 7% CO2 with RPMI (KAP^2D cells) or DMEM (other cell lines), supplemented with 10% FBS and penicillin–streptomycin. KAP^2D cells were authenticated using PCR (Kras locus and Trp53 locus). Phoenix-Eco packaging cells and HCT-15, HCT 116, COLO 205, LS 174T, RKO and HT-29 cells were authenticated by the provider using short tandem repeat profiling. No commonly misidentified cell lines were used. Mycoplasma contamination was excluded by a PCR-based analysis.
as §1

KAP^2D cells = assay: quantification of viable KAP^2D cells over time (cell-doubling assay); type: cell-based, mouse; conditions: Fig. 4i
Protocol: The treatment with doxycycline (5 µg ml^−1), pharmacological inhibitors or corresponding volumes of DMSO was started 24 h after plating. […] Cell viability was measured by means of CellTiter-Glo 3D or CellTiter-Glo 2.0 reagent (Promega) according to the manufacturers’ instructions and the Infinite M Plex reader (Tecan, i-control version 3.9.1 software). Results were normalized to vehicle (DMSO) or to shNC. For cell-doubling assays, the cell number was quantified at the corresponding time points using Guava EasyCyte flow cytometer (Luminex, CytoSoft v5.2 software).

In the case of O=C1c2ccc(Nc3ccc(F)cc3F)cc2CCc2ccc(OC[C@H](O)CO)cc21 [SKL, skepinone-L, reference compound], the “TRT” value (p38α; Fig. 2e, replicates) is reported as 88.3 s and 94.8 s and 81.2 s, the TRT (p38α; reciprocal of koff) is reported as 88 s and the viability at 0.5 µM (PDO10; Homo sapiens, 96 h, read-out: Cell viability (%), PDO10, 0.5 µM, 4 d) is reported as 90.5%. For the same molecule, the viability at 1 µM (PDO10; Homo sapiens, 96 h, read-out: Cell viability (%), PDO10, 1 µM, 4 days) was 94.7%, the “Cell viability (%)” value (PDO10; PDO10, 0.5 µM, 4 d, 0.5 µM) was 87.26% and 98.21% and the “Cell viability (%)” value (PDO10; PDO10, 1 µM, 4 days, 1 µM) was 92.67% and 102.90%. For the same molecule, the “HCT 116 Cell viability (%)” value (HCT 116; 0.0137 µM) was 82.53% and 93.66% and 88.98% and 84.63%, the “HCT 116 Cell viability (%)” value (HCT 116; 0.0412 µM) was 87.30% and 84.90% and 78.78% and 77.22% and 83.29% and the “HCT 116 Cell viability (%)” value (HCT 116; 0.1235 µM) was 92.74% and 88.80% and 81.62% and 82.67% and 87.37%. For the same molecule, the “HCT 116 Cell viability (%)” value (HCT 116; 0.3704 µM) was 94.27% and 95.66% and 82.63% and 82.17%, the “HCT 116 Cell viability (%)” value (HCT 116; 1.1111 µM) was 100.75% and 99.43% and 96.05% and 80.80% and 79.61% and 91.28% and the “HCT 116 Cell viability (%)” value (HCT 116; 3.3333 µM) was 95.32% and 96.31% and 81.21% and 79.37% and 87.78%. The “HCT 116 Cell viability (%)” value (HCT 116; 10.0000 µM) was 90.67% and 87.54% and 88.22% and 75.98% and 77.27% and 105.12%, the viability at 0.0137 µM (HCT 116; Homo sapiens, HCT-116, 96 h, read-out: HCT 116 Cell viability (%), 0.0137 µM, 4 d) was 85.5% and the viability at 0.0412 µM (HCT 116; Homo sapiens, HCT-116, 96 h, read-out: HCT 116 Cell viability (%), 0.0412 µM, 4 d) was 90.7%. For the same molecule, the viability at 0.1235 µM (HCT 116; Homo sapiens, HCT-116, 96 h, read-out: HCT 116 Cell viability (%), 0.1235 µM, 4 d) was 93.8%, the viability at 0.3704 µM (HCT 116; Homo sapiens, HCT-116, 96 h, read-out: HCT 116 Cell viability (%), 0.3704 µM, 4 d) was 94.8% and the viability at 3.3333 µM (HCT 116; Homo sapiens, HCT-116, 96 h, read-out: HCT 116 Cell viability (%), 3.3333 µM, 4 d) was 96.3%. For the same molecule, the Number of cells (KAP^2D cells; 0 h of treatment) was 41307.05 and 44263.95 and 43595.63 and 48502.24 and 40389.64, the Number of cells (KAP^2D cells; 12 h of treatment) was 65088.74 and 77948.45 and 80933.57 and 91775.55 and 95176.94 and 93698.43 and the Number of cells (KAP^2D cells; 24 h of treatment) was 83699.30 and 94240.25 and 95144.88 and 126855.10 and 130387.80 and 122006.30. For the same molecule, the Number of cells (KAP^2D cells; 36 h of treatment) was 151900.95 and 118999.57 and 148091.83 and 233974.50 and 200549.50 and 179469.60, the Number of cells (KAP^2D cells; 48 h of treatment) was 325693.88 and 295126.41 and 320338.47 and 303856.40 and 287208.10 and 301764.60 and the Number of cells (KAP^2D cells; 60 h of treatment) was 579787.04 and 516216.51 and 567999.66 and 537469.80 and 457898.40 and 474698.40.
